This passage reports IC50 results from patent US20210198277A1, “AMINE-SUBSTITUTED ARYL OR HETEROARYL COMPOUNDS” (Epizyme, Inc., priority 2016, published 2021).

Broadly, the IC50 is the concentration that inhibits the measured activity by half.

Bounds are passed on as bounds.

The target of this test is T1, EHMT2 (Homo sapiens, UniProt Q96KQ7).
T1 construct: host or cells: MDA-MB-231
T1 sequence (Q96KQ7 1-1210): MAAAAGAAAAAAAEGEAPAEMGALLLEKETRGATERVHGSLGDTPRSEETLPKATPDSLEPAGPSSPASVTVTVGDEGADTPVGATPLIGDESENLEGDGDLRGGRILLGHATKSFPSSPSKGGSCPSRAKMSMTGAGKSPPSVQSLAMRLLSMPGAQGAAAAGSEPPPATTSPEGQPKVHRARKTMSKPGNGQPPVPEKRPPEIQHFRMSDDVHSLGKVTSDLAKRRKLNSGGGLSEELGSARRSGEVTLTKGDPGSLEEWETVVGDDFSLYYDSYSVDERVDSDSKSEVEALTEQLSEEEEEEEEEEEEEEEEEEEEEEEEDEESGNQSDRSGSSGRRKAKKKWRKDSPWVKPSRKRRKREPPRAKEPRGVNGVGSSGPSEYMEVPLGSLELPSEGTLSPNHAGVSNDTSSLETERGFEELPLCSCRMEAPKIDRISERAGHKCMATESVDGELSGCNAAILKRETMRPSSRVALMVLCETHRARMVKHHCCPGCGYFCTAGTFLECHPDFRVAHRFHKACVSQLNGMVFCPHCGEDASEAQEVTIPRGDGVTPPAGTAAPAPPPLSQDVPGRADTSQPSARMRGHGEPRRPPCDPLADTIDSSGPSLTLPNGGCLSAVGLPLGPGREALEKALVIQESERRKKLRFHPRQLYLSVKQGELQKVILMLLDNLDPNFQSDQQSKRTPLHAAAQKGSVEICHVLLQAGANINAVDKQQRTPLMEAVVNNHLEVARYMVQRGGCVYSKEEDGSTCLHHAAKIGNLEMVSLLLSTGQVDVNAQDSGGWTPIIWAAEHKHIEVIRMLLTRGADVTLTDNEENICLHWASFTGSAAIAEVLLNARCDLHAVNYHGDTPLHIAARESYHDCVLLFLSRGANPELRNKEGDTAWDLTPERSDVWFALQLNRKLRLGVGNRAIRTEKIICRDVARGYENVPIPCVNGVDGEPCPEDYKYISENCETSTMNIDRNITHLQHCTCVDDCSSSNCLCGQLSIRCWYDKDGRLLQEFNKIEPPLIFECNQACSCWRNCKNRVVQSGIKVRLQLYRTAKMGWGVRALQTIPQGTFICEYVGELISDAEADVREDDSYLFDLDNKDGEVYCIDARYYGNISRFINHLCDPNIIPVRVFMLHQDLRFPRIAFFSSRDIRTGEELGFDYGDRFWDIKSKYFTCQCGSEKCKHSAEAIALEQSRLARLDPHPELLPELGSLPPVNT
Nature of the test: MDA-MB-231 H3K9me2 in-cell Western assay (EHMT2 ICW). Type of test: cell-based. The settings on record: Table III; MDA-MB-231 H3K9me2 in-cell Western; read-out: EHMT2 ICW (IC50 μM). The method, boiled down:
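Steps: compound added to plate, MDA-MB-231 cells plated in RPMI with 10% FBS, incubation for 48 h at 37 °C, fixation, overnight anti-H3K9me2 staining at 4 °C, and donkey anti-mouse 800CW with DRAQ5 counterstain. IC50 values come from percent inhibition fitted with a four-parameter model.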
On to `CNc1cc(C)nc(Nc2cc(OCCCN3CCCC3)c(OC)cc2F)n1` [Compound 302, N^2-(2-fluoro-4-methoxy-5-(3-(pyrrolidin-1-yl)propoxy)phenyl)-N^4,6-dimethylpyrimidine-2,4-diamine], for which the half-maximal inhibitory concentration (IC50) was over 10 µM.
With `CNc1ccnc(Nc2ccc(OC)c(OCCCN3CCC3C)c2)n1` (stereo not shown) [Compound 429, N^2-(4-methoxy-3-(3-(2-methylazetidin-1-yl)propoxy)phenyl)-N^4-methylpyrimidine-2,4-diamine] the figure was 1 to 10 µM; with `CNc1cc(C)nc(Nc2ccc(OC)c(OCC3CN(C)C3)c2)n1` [Compound 442, N^2-(4-methoxy-3-((1-methylazetidin-3-yl)methoxy)phenyl)-N^4,6-dimethylpyrimidine-2,4-diamine], 0.1 to 1 µM.
With `CNc1ccnc(Nc2ccc(OC)c(OC[C@H](O)CN3CCCC3)c2)n1` [Compound 299, (R)-1-(2-methoxy-5-((4-(methylamino)pyrimidin-2-yl)amino)phenoxy)-3-(pyrrolidin-1-yl)propan-2-ol] the figure was 0.1 to 1 µM; with `CNc1cc(Nc2cc(OCCCN3CCCC3)c(OC)cn2)nc(C)c1F` [Compound 309, 5-fluoro-N^2-(5-methoxy-4-(3-(pyrrolidin-1-yl)propoxy)pyridin-2-yl)-N^4,6-dimethylpyridine-2,4-diamine], 0.1 to 1 µM.
With `CNc1cc(C)nc(Nc2cc(OCCCN3CCCC3)c(OC)cn2)n1` [Compound 303, N^2-(5-methoxy-4-(3-(pyrrolidin-1-yl)propoxy)pyridin-2-yl)-N^4,6-dimethylpyrimidine-2,4-diamine] the figure was 1 to 10 µM.
In the case of `CNc1ccnc(Nc2cccc(N3CCC(N(C)C)C3=O)c2)n1` (stereo not shown) [Compound 275], the IC50 was over 10 µM.
As for `CNc1cc(C)nc(Nc2ccc(OC)c(OCC3CCN(C4CCC4)C3)c2)n1` (stereo not shown) [Compound 446, N^2-(3-((1-cyclobutylpyrrolidin-3-yl)methoxy)-4-methoxyphenyl)-N^4,6-dimethylpyrimidine-2,4-diamine], the figure is 0.1 to 1 µM; as for `CNc1ccnc(Nc2ccc(OC)c(OCCCN3CCC(C)C3)c2)n1` (stereo not shown) [Compound 293, N^2-(4-methoxy-3-(3-(3-methylpyrrolidin-1-yl)propoxy)phenyl)-N^4-methylpyrimidine-2,4-diamine], 1 to 10 µM; as for `CNc1ccnc(Nc2cccc(N3CCC(N)C3=O)c2)n1` (stereo not shown) [Compound 274], over 10 µM.
Turning to `CCOc1ccc(Nc2nccc(NC)n2)cc1OCCCN1CCCC1` [Compound 430, N^2-(4-ethoxy-3-(3-(pyrrolidin-1-yl)propoxy)phenyl)-N^4-methylpyrimidine-2,4-diamine], the IC50 is over 10 µM.
With `CNc1cc(COC)nc(Nc2ccc(OC)c(OCCCN3CCCC3)c2)n1` [Compound 441, N^2-(4-methoxy-3-(3-(pyrrolidin-1-yl)propoxy)phenyl)-6-(methoxymethyl)-N^4-methylpyrimidine-2,4-diamine] the figure was 1 to 10 µM.
With `CNc1cc(Nc2cccc(COCCN3CCCC3)n2)ccn1` [Compound 268, N^2-methyl-N^4-(6-((2-(pyrrolidin-1-yl)ethoxy)methyl)pyridin-2-yl)pyridine-2,4-diamine] the figure was over 10 µM.
As for `COc1cnc(Nc2nccc3[nH]ccc23)cc1OCCCN1CCCC1` [Compound 304], the IC50 lay in the range of 0.1 to 1 µM.
As for `COc1cnc(Nc2cnc3ccccn23)cc1OCCCN1CCCC1` [Compound 321, N-(5-methoxy-4-(3-(pyrrolidin-1-yl)propoxy)pyridin-2-yl)imidazo[1,2-a]pyridin-3-amine], the figure is over 10 µM; as for `CNc1ccnc(Nc2ccc(C3CC3)c(OCCCN3CCCC3)c2)n1` [Compound 314, N^2-(4-cyclopropyl-3-(3-(pyrrolidin-1-yl)propoxy)phenyl)-N^4-methylpyrimidine-2,4-diamine], 1 to 10 µM.
With `CCOc1ccc(Nc2nc(C)cc(NC)n2)cc1OCCCN1CCCC1` [Compound 432, N^2-(4-ethoxy-3-(3-(pyrrolidin-1-yl)propoxy)phenyl)-N^4,6-dimethylpyrimidine-2,4-diamine] the figure was over 10 µM; with `CCc1nc(Nc2ccc(OC)c(OCCCN3CCCC3)c2)nc(NC)c1F` [Compound 319, 6-ethyl-5-fluoro-N^2-(4-methoxy-3-(3-(pyrrolidin-1-yl)propoxy)phenyl)-N^4-methylpyrimidine-2,4-diamine], 1 to 10 µM; with `CNc1cc(C)nc(Nc2cc(OCCCN3CCCC3)c(OC)cn2)c1` [Compound 307, N^2-(5-methoxy-4-(3-(pyrrolidin-1-yl)propoxy)pyridin-2-yl)-N^4,6-dimethylpyridine-2,4-diamine], 0.1 to 1 µM.
With `CNc1ccnc(Nc2cc(OCCCN3CCCC3)c(OC)cn2)c1` [Compound 305, N^2-(5-methoxy-4-(3-(pyrrolidin-1-yl)propoxy)pyridin-2-yl)-N^4-methylpyridine-2,4-diamine] the figure was 0.1 to 1 µM; with `CNc1cc(Nc2ccc(OC)c(OCCCN3CCCC3)c2)cc(C(F)(F)F)n1` [Compound 273], over 10 µM.
As to `CNc1ccnc(Nc2cccc3oc(CCN(C)C)nc23)n1` [Compound 295], the concentration for half-maximal inhibition (IC50) was over 10 µM.
With `CNc1ccnc(Nc2ccc(OC)c(OCc3noc(C4CC4)n3)c2)n1` [Compound 433, N^2-(3-((5-cyclopropyl-1,2,4-oxadiazol-3-yl)methoxy)-4-methoxyphenyl)-N^4-methylpyrimidine-2,4-diamine] the figure was over 10 µM; with `CNc1cc(C)nc(Nc2ccc(C3CC3)c(OCCCN3CCCC3)c2)n1` [Compound 313, N^2-(4-cyclopropyl-3-(3-(pyrrolidin-1-yl)propoxy)phenyl)-N^4,6-dimethylpyrimidine-2,4-diamine], 1 to 10 µM.
With `CNc1ccnc(Nc2cccc(COCCN3CCCC3)n2)c1` [Compound 267, N^4-methyl-N^2-(6-((2-(pyrrolidin-1-yl)ethoxy)methyl)pyridin-2-yl)pyridine-2,4-diamine] the figure was over 10 µM; with `CNc1ccnc(Nc2ccc(OC)c(OCCC3CCCN3C)c2)n1` (stereo not shown) [Compound 288, N^2-(4-methoxy-3-(2-(1-methylpyrrolidin-2-yl)ethoxy)phenyl)-N^4-methylpyrimidine-2,4-diamine], 1 to 10 µM.
With `CNc1ccnc(Nc2ccc(OC)c(OCCCN3CCCC3C)c2)n1` (stereo not shown) [Compound 290, N^2-(4-methoxy-3-(3-(2-methylpyrrolidin-1-yl)propoxy)phenyl)-N^4-methylpyrimidine-2,4-diamine] the figure was 1 to 10 µM; with `CNc1ccnc(Nc2ccc(OC)c(OC[C@@H]3CN(C)C[C@H]3C)c2)n1` (single isomer, unassigned) [Compound 438], over 10 µM.
Take `CCOc1ccc(Nc2nccc(NC)n2)cc1OCC1CCN(C)C1` (stereo not shown) [Compound 431]: the half-inhibitory concentration (IC50) is over 10 µM.
As for `CNc1cc(N2CCCC2)nc(Nc2ccc(OC)c(OCCCN3CCCC3)c2)n1` [Compound 450, N^2-(4-methoxy-3-(3-(pyrrolidin-1-yl)propoxy)phenyl)-N^4-methyl-6-(pyrrolidin-1-yl)pyrimidine-2,4-diamine], the figure is over 10 µM.
As for `CNc1cc(C)nc(Nc2ccc(OC)c(OCC3CCCO3)c2)n1` (stereo not shown) [Compound 452, N^2-(4-methoxy-3-((tetrahydrofuran-2-yl)methoxy)phenyl)-N^4,6-dimethylpyrimidine-2,4-diamine], the figure is over 10 µM.
